Patent publication US20250283038A1, “COMPOUNDS INDUCING PRODUCTION OF PROTEINS BY IMMUNE CELLS” (UNIVERSITE PARIS CITE, priority 2022, published 2025)

Tested on: human B cells
Assay: IL-10 induction in human B cells cultivated with anti-IgM plus CpG, IL-10 measured in cell culture supernatants
Format: cell-based
Details: 2 consecutive days, molecule at 0.25 μM final concentration
Protocol: Human B cells isolated magnetically through negative selection (B Cell Isolation Kit II, human, Miltenyi ref: 130-091-151) were cultivated for 2 consecutive days in the presence of anti-IgM plus CpG in the presence of the indicated molecule (see table 3) at 0.25μM final concentration. IL-10 was measured in cell culture supernatants.
Human B cells isolated magnetically through negative selection (B Cell Isolation Kit II, human, Miltenyi ref: 130-091-151) were cultivated for 2 consecutive days in the presence of anti-IgM plus CpG in the presence of DMSO (as control) or in the presence of the tested molecules at 0.25 microM final concentration. IL-10 was measured in cell culture supernatants. NS: non stimulated B cell culture condition.

In the case of “N-(2-(4-fluorophenyl)imidazo[1,2-a]pyridin-6-yl)-2-methoxybenzamide [Compound 217]”, the “II-10 Induction Mean (pg/mL) human” value was 2.06 pg/mL.
